# Experimental data taken from PMC5127042, “A polysaccharide utilization locus from Flavobacterium johnsoniae enables conversion of recalcitrant chitin” (Biotechnology for Biofuels, 2016).
# Experiments:
# [1] = biological target: T1, CusDI (Flavobacterium johnsoniae, UniProt A5FB66); test: isothermal titration calorimetry; assay type: binding; conditions: 20 mM HEPES, 100 mM NaCl, pH 7.0, 25 °C, one-site model
# T1 construct: gene Fjoh_4558; residues 33-526, signal peptide removed, N-terminal His tag removed with TEV, E. coli Rosetta(DE3) pLysS
# T1 sequence (A5FB66 33-526): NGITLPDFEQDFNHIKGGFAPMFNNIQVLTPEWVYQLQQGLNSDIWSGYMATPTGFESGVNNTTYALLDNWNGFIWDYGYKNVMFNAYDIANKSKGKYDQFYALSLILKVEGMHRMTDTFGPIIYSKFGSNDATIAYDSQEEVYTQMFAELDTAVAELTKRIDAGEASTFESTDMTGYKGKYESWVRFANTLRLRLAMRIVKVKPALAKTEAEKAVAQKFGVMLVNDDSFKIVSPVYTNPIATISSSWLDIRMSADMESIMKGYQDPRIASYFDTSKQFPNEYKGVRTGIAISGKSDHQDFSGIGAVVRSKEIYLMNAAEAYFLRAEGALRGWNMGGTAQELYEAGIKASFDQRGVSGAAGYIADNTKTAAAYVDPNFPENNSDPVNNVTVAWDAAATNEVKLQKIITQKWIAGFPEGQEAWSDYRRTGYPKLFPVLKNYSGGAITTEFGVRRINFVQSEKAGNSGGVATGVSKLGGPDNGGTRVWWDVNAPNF
# Description: isothermal titration calorimetry on CusDI
# [2] = biological target: T2, CusDII (Flavobacterium johnsoniae, UniProt A5FB55); test: isothermal titration calorimetry; assay type: binding; conditions: 20 mM HEPES, 100 mM NaCl, pH 7.0, 25 °C; independent site model
# T2 construct: gene Fjoh_4561; residues 26-505 (crystal construct 35-505), signal peptide removed, N-terminal His tag removed with TEV, E. coli Rosetta(DE3) pLysS
# T2 sequence (A5FB55 26-505): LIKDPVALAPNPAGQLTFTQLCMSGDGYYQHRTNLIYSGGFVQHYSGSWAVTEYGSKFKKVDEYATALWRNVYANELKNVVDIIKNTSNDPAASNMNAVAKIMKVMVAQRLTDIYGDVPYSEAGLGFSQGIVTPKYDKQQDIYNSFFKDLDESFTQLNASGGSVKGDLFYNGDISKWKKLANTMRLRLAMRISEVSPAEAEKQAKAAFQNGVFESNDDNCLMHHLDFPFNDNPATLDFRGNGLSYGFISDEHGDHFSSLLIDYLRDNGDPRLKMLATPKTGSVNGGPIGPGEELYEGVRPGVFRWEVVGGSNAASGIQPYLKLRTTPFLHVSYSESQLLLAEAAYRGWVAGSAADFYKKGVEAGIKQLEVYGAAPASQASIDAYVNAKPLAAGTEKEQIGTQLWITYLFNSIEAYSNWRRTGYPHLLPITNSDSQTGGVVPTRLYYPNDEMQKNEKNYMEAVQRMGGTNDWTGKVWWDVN
# Description: isothermal titration calorimetry on CusDII
SMILES,Kd [1],Kd [2],further results
CC(=O)N[C@H]1[C@H](O[C@H]2[C@H](O)[C@@H](NC(C)=O)C(O)O[C@@H]2CO)O[C@H](CO)[C@@H](O)[C@@H]1O (some centres unmarked) [Chitobiose],25.6 ± 2.3 µM,–,–
CC(=O)N[C@H]1[C@H](O[C@H]2[C@H](O)[C@@H](NC(C)=O)[C@H](O[C@H]3[C@H](O)[C@@H](NC(C)=O)C(O)O[C@@H]3CO)O[C@@H]2CO)O[C@H](CO)[C@@H](O[C@@H]2O[C@H](CO)[C@@H](O[C@@H]3O[C@H](CO)[C@@H](O[C@@H]4O[C@H](CO)[C@@H](O)[C@H](O)[C@H]4NC(C)=O)[C@H](O)[C@H]3NC(C)=O)[C@H](O)[C@H]2NC(C)=O)[C@@H]1O (some centres unmarked) [Chitohexaose],16.1 ± 0.42 µM,41.2 ± 1 µM,–
CC(=O)N[C@H]1[C@H](O[C@H]2[C@H](O)[C@@H](NC(C)=O)[C@H](O[C@H]3[C@H](O)[C@@H](NC(C)=O)C(O)O[C@@H]3CO)O[C@@H]2CO)O[C@H](CO)[C@@H](O[C@@H]2O[C@H](CO)[C@@H](O[C@@H]3O[C@H](CO)[C@@H](O)[C@H](O)[C@H]3NC(C)=O)[C@H](O)[C@H]2NC(C)=O)[C@@H]1O (some centres unmarked) [Chitopentaose],12.8 ± 0.21 µM,236 ± 8 µM,–
CC(=O)N[C@H]1[C@H](O[C@H]2[C@H](O)[C@@H](NC(C)=O)C(O)O[C@@H]2CO)O[C@H](CO)[C@@H](O[C@@H]2O[C@H](CO)[C@@H](O[C@@H]3O[C@H](CO)[C@@H](O)[C@H](O)[C@H]3NC(C)=O)[C@H](O)[C@H]2NC(C)=O)[C@@H]1O (some centres unmarked) [Chitotetraose],–,–,Kd ([1]; single titration): 38.3 ± 4.3 µM
CC(=O)N[C@H]1[C@H](O[C@H]2[C@H](O)[C@@H](NC(C)=O)C(O)O[C@@H]2CO)O[C@H](CO)[C@@H](O[C@@H]2O[C@H](CO)[C@@H](O)[C@H](O)[C@H]2NC(C)=O)[C@@H]1O (some centres unmarked) [Chitotriose],8.51 ± 0.51 µM,–,–
CC(=O)N[C@H]1C(O)O[C@H](CO)[C@@H](O)[C@@H]1O (some centres unmarked) [GlcNAc],–,–,Kd ([1]; n constrained to 1): 1470 ± 210 µM
